pEC50: −log10 of the molar value.
Columns and labels:
[1] = system: SETFA, AMARE, POLCO, CHEAL, GALAP; experiment: Greenhouse herbicidal test, post-emergence, weed panel; format: in vivo; details: application rate 1 kg/ha, scale 0 to 100
Source text: The seeds of the test plants were sown separately for each species. For the post-emergence treatment, the test plants were first grown to a height of 2 to 5 cm, depending on the plant habit, and only then treated with the active ingredients which had been suspended or emulsified in water. For this purpose, the test plants were either sown directly and grown in the same containers, or they were first grown separately as seedlings and transplanted into the test containers a few days prior to treatment. Depending on the species, the plants were kept at 10-25° C. or 20-35° C. The test period extended over 8 to 9 days. During this time, the plants were tended, and their response to the individual treatments was evaluated. Evaluation was carried out using a scale from 0 to 100. 100 means no emergence of the plants, or complete destruction of at least the aerial moieties, and 0 means no damage, or normal course of growth. A good herbicidal activity is given at values of at least 70 and a very good herbicidal activity is given at values of at least 85. The plants used in the greenhouse experiments belonged to the following species: [table]

[2] = molecular target: Arabidopsis thaliana SHMT; experiment: SHMT activity assay (ED50 SHMT), coupled with N5,N10-CH2-THF dehydrogenase, NADH at 340 nm; format: biochemical
Method in brief: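 His-tagged SHMT purified on Ni-NTA. NADH formation followed at 340 nm for 30 min; ED50 from inhibition of initial velocity.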

[3] = inhibition of initial velocity of Arabidopsis thaliana SHMT
[4] = Arabidopsis thaliana SHMT enzyme assay, values given as upper bounds
[5] = Table 2, values given as upper bounds
[6] = Table 2, Arabidopsis thaliana SHMT enzyme assay, values given as upper bounds

SMILES | pEC50 [2, 5] | other results
Cc1n[nH]c2c1C(c1cc(Cl)cc(Cl)c1)(C(C)C)C(C#N)=C(N)O2 (racemic) [Compound 2.112] |  | herbicidal activity against at least three of the weeds SETFA, AMARE, POLCO, CHEAL, GALAP [1]: good or very good
Cc1n[nH]c2c1C(c1cc(Cl)cc(C#N)c1)(C1(F)CC1)C(C#N)=C(N)O2 (racemic) [Compound 2.400] |  | herbicidal activity against at least three of the weeds SETFA, AMARE, POLCO, CHEAL, GALAP [1]: good or very good
Cc1n[nH]c2c1C(c1cc(C#N)cc(OC(F)(F)F)c1)(C1CCC1)C(C#N)=C(N)O2 (racemic) [Compound 2.417] |  | herbicidal activity against at least three of the weeds SETFA, AMARE, POLCO, CHEAL, GALAP [1]: good or very good
CC(=O)N(C)c1cc(C(F)(F)F)cc(C2(C3(F)CC3)C(C#N)=C(N)Oc3[nH]nc(C)c32)c1 (racemic) [Compound 2.439] |  | herbicidal activity against at least three of the weeds SETFA, AMARE, POLCO, CHEAL, GALAP [1]: good or very good
CCc1n[nH]c2c1C(c1ccc(Cl)s1)(C1CC1)C(C#N)=C(N)O2 (centres unmarked) [Compound 4.78] |  | pEC50 [2, 3]: > 5.00
Cc1n[nH]c2c1C(c1cc(Br)cc(N(C)C(=O)Cc3nnn[nH]3)c1)(C1CCC1)C(C#N)=C(N)O2 (centres unmarked) [Compound 2.730] |  | pEC50 [2, 4]: > 8.00
Cc1n[nH]c2c1C(CC(C)C)(c1ccc(Cl)cc1)C(C#N)=C(N)O2 (centres unmarked) [Compound 2.142.] | > 5.00 | 
Cc1cccc(-c2ccc(C3(C4CCC4)C(C#N)=C(N)Oc4[nH]nc(C)c43)s2)c1 (centres unmarked) [Compound 4.29] |  | pEC50 [2, 3]: > 8.00
CCC1(c2cc(Br)cc(C#N)c2)C(C#N)=C(N)Oc2[nH]nc(C)c21 (centres unmarked) [Compound 2.532] | > 8.00 | 
CCC1(c2cc(Br)cc(C#N)c2)C(C#N)=C(N)Oc2[nH]nc(COC)c21 (centres unmarked) [Compound 2.590] | > 6.00 | 
COCc1n[nH]c2c1C(c1cccc(C(F)(F)F)c1)(C1CCC1)C(C#N)=C(N)O2 (centres unmarked) [Compound 2.196.] | > 6.00 | 
Cc1n[nH]c2c1C(c1ccc(OCCC#N)c(Cl)c1)(C1CCC1)C(C#N)=C(N)O2 (centres unmarked) [Compound 2.645] | > 8.00 | 
CCCCCCc1n[nH]c2c1C(CC)(c1cccc(Cl)c1)C(C#N)=C(N)O2 (centres unmarked) [Compound 2.197.] | > 6.00 | 
Cc1n[nH]c2c1C(c1cc(Cl)c(Cl)c(C(F)(F)F)c1)(C1CCC1)C(C#N)=C(N)O2 (centres unmarked) [Compound 2.273] |  | pEC50 [2, 6]: > 8.00
CCC1(c2cccc(Br)c2)C(C#N)=C(N)Oc2[nH]nc(C)c21 (centres unmarked) [Compound 2.4.] | > 6.00 | 
CSc1cccc(C2(C3CCC3)C(C#N)=C(N)Oc3[nH]ncc32)c1 (centres unmarked) [Compound 2.311] |  | pEC50 [2, 6]: > 6.00
Cc1n[nH]c2c1C(c1cc(C#N)cc(-c3ccc(C(=O)O)o3)c1)(C1(F)COC1)C(C#N)=C(N)O2 (centres unmarked) [Compound 2.681] |  | pEC50 [2, 4]: > 5.00
Cc1n[nH]c2c1C(c1ccc(-c3cccc(F)c3)s1)(C1CCC1)C(C#N)=C(N)O2 (centres unmarked) [Compound 4.14] |  | pEC50 [2, 3]: > 8.00
Cc1n[nH]c2c1C(c1cc(Cl)cc(OC(F)(F)F)c1)(C1CCC1)C(C#N)=C(N)O2 (centres unmarked) [Compound 2.266] |  | pEC50 [2, 6]: > 8.00
Cc1n[nH]c2c1C(c1cc(C#N)cc(N(C)C(=O)CCCc3nnn[nH]3)c1)(C(C)C)C(C#N)=C(N)O2 (centres unmarked) [Compound 2.722] |  | pEC50 [2, 4]: > 7.00

SMILES | pEC50 [2, 5] | other results
Cc1ccc(Oc2cc(Cl)cc(C3(C4CCC4)C(C#N)=C(N)Oc4[nH]nc(C)c43)c2)cc1 (centres unmarked) [Compound 2.240] |  | pEC50 [2, 6]: > 8.00
Cc1n[nH]c2c1C(c1cc(C#N)cc(CCC#N)c1)(C1CCC1)C(C#N)=C(N)O2 (centres unmarked) [Compound 2.650] | > 8.00 | 
Cc1n[nH]c2c1C(c1cc(Cl)cc(Oc3ccccc3F)c1)(C1CCC1)C(C#N)=C(N)O2 (centres unmarked) [Compound 2.235] |  | pEC50 [2, 6]: > 8.00
Cc1n[nH]c2c1C(c1cc(C(F)(F)F)cc(C(F)(F)F)c1)(C1CC(O)C1)C(C#N)=C(N)O2 (racemic) [Compound 2.540] | > 7.00 | 
Cc1n[nH]c2c1C(c1cc(C#N)cc(N(C)CC#N)c1)(C1CCC1)C(C#N)=C(N)O2 (centres unmarked) [Compound 2.631] | > 8.00 | 
COc1c(Br)cc(C2(C3CCC3)C(C#N)=C(N)Oc3[nH]nc(C)c32)cc1Br (centres unmarked) [Compound 2.241] |  | pEC50 [2, 6]: > 8.00
COc1ccc2cc(C3(C4CCC4)C(C#N)=C(N)Oc4[nH]nc(CO)c43)ccc2c1 (centres unmarked) [Compound 4.77] |  | pEC50 [2, 3]: > 6.00
CCc1n[nH]c2c1C(CC)(c1cc(Br)cc(C#N)c1)C(C#N)=C(N)O2 (centres unmarked) [Compound 2.576] | > 7.00 | 
CCCCC1(c2cccc(Cl)c2)C(C#N)=C(N)Oc2[nH]nc(C)c21 (racemic) [Compound 2.91.] | > 5.00 | 
N#CC1=C(N)Oc2[nH]nc(CO)c2C1(c1cc(C(F)(F)F)cc(C(F)(F)F)c1)C1(F)CC1 (centres unmarked) [Compound 2.465] | > 7.00 | 
Cc1n[nH]c2c1C(c1cc(C#N)cc(C#N)c1)(C1(F)CC1)C(C#N)=C(N)O2 (centres unmarked) [Compound 2.383] |  | pEC50 [2, 6]: > 8.00
CCC1(c2cc(C(F)(F)F)cc(C(F)(F)F)c2)C(C#N)=C(N)Oc2[nH]nc(C3CC3)c21 (centres unmarked) [Compound 2.121.] | > 7.00 | 
Cc1n[nH]c2c1C(c1cc(C#N)cc(-c3ccc(C(=O)O)c(C(=O)O)c3)c1)(C1CCC1)C(C#N)=C(N)O2 (centres unmarked) [Compound 2.565] | > 8.00 | 
COC(=O)c1cc(-c2cc(C#N)cc(C3(C4CCC4)C(C#N)=C(N)Oc4[nH]nc(C)c43)c2)ccc1C(=O)O (centres unmarked) [Compound 2.572] | > 7.00 | 
CCC1(c2cc(C#N)cc(C(F)(F)F)c2)C(C#N)=C(N)Oc2[nH]nc(COC)c21 (centres unmarked) [Compound 2.588] | > 7.00 | 
COc1cc(-c2cc(C#N)cc(C3(C4CCC4)C(C#N)=C(N)Oc4[nH]nc(C)c43)c2)ccc1C(=O)O (centres unmarked) [Compound 2.561] | > 8.00 | 
Cc1n[nH]c2c1C(c1cc(C#N)cc(-c3cccc(F)c3)c1)(C1CCC1)C(C#N)=C(N)O2 (centres unmarked) [Compound 2.327] |  | pEC50 [2, 6]: > 8.00
Cc1n[nH]c2c1C(c1ccc(Cl)c(Cl)c1)(C1(F)CC1)C(C#N)=C(N)O2 (centres unmarked) [Compound 2.245] |  | pEC50 [2, 6]: > 8.00
COc1ccc(C2(C3CC3)C(C#N)=C(N)Oc3[nH]nc(C)c32)cc1Cl (centres unmarked) [Compound 2.149.] | > 7.00 | 
Cc1n[nH]c2c1C(c1cc(Cl)cc(C(F)(F)F)c1)(C1CCC1)C(C#N)=C(N)O2 (centres unmarked) [Compound 2.221] |  | pEC50 [2, 6]: > 8.00

SMILES | pEC50 [2, 5] | other results
N#CC1=C(N)Oc2[nH]nc(C3CC3)c2C1(c1ccc(Cl)cc1)C1CC1 (centres unmarked) [Compound 2.129.] | > 5.00 | 
Cc1n[nH]c2c1C(c1cc(Cl)cc(CCC(=O)O)c1)(C1CCC1)C(C#N)=C(N)O2 (centres unmarked) [Compound 2.500] | > 8.00 | 
Cc1n[nH]c2c1C(c1cc3cc(C(F)(F)F)ccc3s1)(C1CCC1)C(C#N)=C(N)O2 (centres unmarked) [Compound 4.22] |  | pEC50 [2, 3]: > 8.00
CCC1(c2cc(C(F)(F)F)cc(C(F)(F)F)c2)C(C#N)=C(N)Oc2[nH]ncc21 (centres unmarked) [Compound 2.64.] | > 6.00 | 
Cc1n[nH]c2c1C(c1cc(Cl)c3c(c1)OCCO3)(C1CCC1)C(C#N)=C(N)O2 (centres unmarked) [Compound 4.5] |  | pEC50 [2, 3]: > 8.00
COC(=O)c1ccc(-c2cc(C#N)cc(C3(C4CCC4)C(C#N)=C(N)Oc4[nH]nc(C)c43)c2)cc1OC (centres unmarked) [Compound 2.522] | > 8.00 | 
Cc1n[nH]c2c1C(c1cc(C#N)cc(N(C)C(=O)c3ccc(C(=O)O)cc3)c1)(C(C)C)C(C#N)=C(N)O2 (centres unmarked) [Compound 2.669] |  | pEC50 [2, 4]: > 7.00
CCC1(c2ccc(F)c(Br)c2)C(C#N)=C(N)Oc2[nH]nc(C)c21 (racemic) [Compound 2.13.] | > 7.00 | 
Cc1n[nH]c2c1C(c1cc(C#N)cc(C#N)c1)(C1CC1)C(C#N)=C(N)O2 (centres unmarked) [Compound 2.366] |  | pEC50 [2, 6]: > 8.00
Cc1n[nH]c2c1C(c1cc(Cc3nnn[nH]3)cc(-c3nnn[nH]3)c1)(C(C)C)C(C#N)=C(N)O2 (centres unmarked) [Compound 2.735] |  | pEC50 [2, 4]: > 5.00
COCOc1cc(C#N)cc(C2(C3CCC3)C(C#N)=C(N)Oc3[nH]nc(C)c32)c1 (centres unmarked) [Compound 2.477] | > 8.00 | 
CC(C)C1(c2cc(Br)cc(Br)c2)C(C#N)=C(N)Oc2[nH]ncc21 (centres unmarked) [Compound 2.287] |  | pEC50 [2, 6]: > 8.00
Cc1n[nH]c2c1C(c1ccc(-c3ccsc3)s1)(C1CCC1)C(C#N)=C(N)O2 (racemic) [Compound 4.21] |  | pEC50 [2, 3]: > 8.00
COc1n[nH]c2c1C(c1cc(Cl)cc(OCC#N)c1)(C1CCC1)C(C#N)=C(N)O2 (centres unmarked) [Compound 2.444] | > 7.00 | 
Cc1n[nH]c2c1C(c1ccc(OCc3nnn[nH]3)c(Cl)c1)(C1CCC1)C(C#N)=C(N)O2 (centres unmarked) [Compound 2.638] | > 8.00 | 
COc1cc(C(=O)O)cc(-c2cc(C#N)cc(C3(C4CCC4)C(C#N)=C(N)Oc4[nH]nc(C)c43)c2)c1 (centres unmarked) [Compound 2.563] | > 8.00 | 
N#CC1=C(N)Oc2[nH]ncc2C1(c1cc(Br)cc(C#N)c1)C1(F)CC1 (centres unmarked) [Compound 2.380] |  | pEC50 [2, 6]: > 8.00
CCC1(c2cccc(F)c2)C(C#N)=C(N)Oc2[nH]nc(C)c21 (centres unmarked) [Compound 2.15.] | > 5.00 | 
CCC1(c2ccc(OCc3ccccc3)cc2)C(C#N)=C(N)Oc2[nH]nc(C)c21 (centres unmarked) [Compound 2.28.] | > 6.00 | 
